The source of these data is patent US20070111952A1, “Glycosylated triketide delta lactones” (priority 2003, published 2007).

Data set [1] deals with A. azollae vegetative cells. In words: Azolla shoot apex bioassay: akinete differentiation of A. azollae / chlorosis of Azolla. Type of data set: cell-based, Anabaena azollae. The method, then: Approximately 10 000 dried N. cornicina (36 g) were ground, suspended in 750 ml H2O, treated 60′ in a 100° C. water bath and centrifuged (14 000×g, 60′). The residue was re-suspended in 300 ml H2O, shacked 15′ and centrifuged (14 000×g, 60′). The two supernatants were grouped, filtered on Macherey-Nagel MN 615 paper and lyophilized. The dry residue (7 g) was suspended in 8 ml H2O, vortexed and centrifuged (7 800×g, 30′). Six ml of supernatant were filtered on acrodiscs 0.22 μm in four 1.5 ml batches, each filtrate being chromatographed on a 500 ml, 2.5 cm diameter Sephadex G 10 column (eluent: water; 3′/fraction, around 6 ml/fraction) The residue was suspended in 2 ml H2O, vortexed and centrifuged (7 800×g, 30′). Two ml of supernatant were filtered and chromatographed as above. This last procedure was repeated twice. Absorbance of each fraction was measured at 254 nm and bioassays were performed on 50 μl of each fraction from the seven chromatograms.
Azolla is a small aquatic fern, which multiplies, most often vegetatively, at the surface of still water bodies, where it can form dense floating carpets. Anabaena azollae is the only known diazotrophic symbiont associated to a pteridophyte, Azolla and the only one linked to a plant throughout its life cycle. […]

Data set [2] deals with A. azollae vegetative cells. In words: Stability of the akinete-inducing activity (autoclaving, long storage). Also noted: species or system Anabaena azollae. As for the experimental part:
Extract of Nephrotoma cornicina (Linnaeus, 1758) (Tipulidae, Diptera) contains a glycosylated triketide lactone, here named cornicinine. The compound according to the invention is present in the head, thorax, abdomen, legs and wings of the insect, from both sexes.
An Azolla shoot apex +/−3 mm long was excised and placed in a 2 ml Eppendorf tube filled with modified, N-free Hoagland solution to which was added the material to be tested. The culture was performed at 26° C. under constant light intensity of 110 μM. m^−2.sec^−1 and with daily adjustment of the liquid level with distilled water to compensate evapotranspiration. Activity was indicated by progressive chlorosis of Azolla, which appears after 5 days. Akinete differentiation can alternatively be followed by observation of leaf squashes under a light microscope, with first symptoms appearing after 48 hours of treatment.

cornicinine: the “concentration able to induce the differentiation of all the vegetative cells of A. azollae into akinetes” value in data set [1] (all vegetative cells into akinetes) is “nanomolar concentrations”. Moreover, in data set [1] (the seven generally recognised Azolla species), the “activity on Azolla species” value is listed as “active”. Moreover, in data set [2], the stability entry is recorded as “stable”.
